A short description of data set [1]: Half-life after intravenous injection in male Wistar rats, concentration from plasma anti-factor Xa. The class given is in vivo. Particulars: 1 mg/Kg, T1/2 from concentration-time curve. Here is the method:
(§1) The pentose (API) in Example 10 is subjected to a biological test: anticoagulant factor Xa activity and half-life (Ti/2), as shown in Table 1. Determination of anticoagulant factor Xa activity: Refer to substrate developing method for determination of anticoagulant factor Xa of low molecular heparin. Measurement of half-life: inject this anticoagulant pentose (dosage 1 mg/Kg) in male Wistar rats intravenously for pharmacokinetic study, calculate the concentration of this compound in blood by measuring the anticoagulant factor Xa in plasma, and calculate the half-life (T1/2) by the concentration-time curve.

The subject of another data set is factor Xa. Briefly: Determination of anticoagulant factor Xa activity (substrate developing method as for low molecular heparin). The class given is biochemical. As to the method:
as §1

Here are results for one compound from patent US20220289782A1, “A Compound with High Anticoagulant Activity and Its Preparation Method and Application” (SUZHOU WISMED PHARMACEUTICALS CO LTD, priority 2019, published 2022).

`CO[C@H]1O[C@H](COS(=O)(=O)O)[C@@H](O[C@@H]2O[C@@H](C(=O)O)[C@@H](O[C@H]3O[C@H](COS(=O)(=O)O)[C@@H](O[C@@H]4O[C@H](C(=O)O)[C@@H](O[C@H]5O[C@H](COS(=O)(=O)O)[C@@H](O)[C@H](O)[C@H]5NS(=O)(=O)O)[C@H](O)[C@H]4O)[C@H](OS(=O)(=O)O)[C@H]3NS(=O)(=O)O)[C@H](O)[C@H]2OS(=O)(=O)O)[C@H](O)[C@H]1NS(=O)(=O)O` [Fondaparinux sodium] showed a Half-life in data set [1] of 0.6 ± 0.1 H. Besides, the “Anticoagulant Factor Xa” value in the data set on factor Xa is 750 + 30 IU/mg.
